Assay results published in patent US20180207228A1, “PEPTIDE COMBINATIONS AND USES THEREOF FOR TREATING GRASS ALLERGY” (ALK-Abelló A/S, priority 2015, published 2018).
Entries after “also recorded” stand apart in the source; their conditions may differ. Where no end group is shown, it is not given here.

Tests used:
[1] = test system: grass allergic donor derived T cell lines (TCL-02 DK-2); assay: Cross-reactivity of homologue peptides, proliferation on TCL02-DK2 (Study XR1); assay type: cell-based, human; conditions: 2 μg/ml, TCL02-DK2, 21 donors
Procedure: To measure the experimental cross-reactivity the proliferation assay of Example 3 was carried out on 21 grass allergic donors (TCL02-DK2). […] Cross-reactivity to Phleum pratense peptides with either close (Lolium perenne (Lol p)) or distant (Phalaris aquatica (Pha a), Cynodon dactylon (Cyn d)) species was experimentally investigated.
For analysing the cross-reactivity data, it was investigated if a donor responds to both native and homologue peptide, XY correlation plots were made where the donor responses to native peptides were plotted versus the donor responses to homologues. […] If less than five donors were responding to the parent peptides, then the data was considered to be in-conclusive, and were thus labelled with “-”. For some of the peptides the analysis was further supported by performing a Spearman r-Non Parametric test (data not shown).
Further the magnitude of T cell response from a parent peptide as defined herein and homologue response were plotted in a XY plot by using GraphPad Prism 6.
To measure the experimental cross-reactivity, the proliferation assay of Example 3 was carried out on 21 grass pollen allergic donors (TCL02-DK2, Study XR1) and 20 grass pollen allergic donors (TCL03−DK1+DK2, Study XR2). […] In Study XR1, Cross-reactivity to Phleum pratense peptides with either close (Lolium perenne-Lol p) or distant ([…]-Pha a, Cynodon dactylon-Cyn d) species was experimentally investigated. In Study XR1, 67 homologue peptides corresponding to 41 native Phleum pratense peptides were investigated together with the 41 Phleum pratense peptides at a concentration of 2 μg/ml. Similarly, study XR2 was carried out on 20 grass pollen allergic donors where donor derived TCL-03 lines were used to investigate Phleum pratense cross-reactivity to Poa pratensis (Poa p), Dactylis glomerata (Dac g), Festuca pratensis (Fes p), Paspalum notatum (Pas n), Sorghum halepense (Sor h), Lolium perenne (Lol p), Phalaris aquatica (Pha a) and Cynodon dactylon (Cyn d).

[2] = test system: release of IFN-γ upon T cell activation; assay: Fluorospot assay, IFN-γ release (DK1-TCL01, US1-TCL01); assay type: cell-based, human; conditions: head prints TCL-02 DK1; 17 TCL-01 DK1 lines
Method in brief: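 Grass-allergic donors' CD8-depleted PBMCs were expanded 14 days with natural grass allergens plus IL-2 to give TCL01 lines. These were incubated 20 h at 37° C with single peptides or peptide mixes at 2 μg/ml, and spot-forming cells were counted. Hit: SI≥2, p≤0.05, Poisson ≤0.05, ≥20 SFC/10^6 cells.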

| Substance | experimental cross-reactivity [1] | IFN-gamma % donor coverage (TCL-02 DK1) [2] [%] |
| --- | --- | --- |
| TDDNEEPIAPYHFDLSGHAF-OH [peptide 204] | showed cross-reactivity; also recorded: good cross-reactivity |  |
| PANDKFTVFEAAFNNAIKAS-OH [compound 70] | showed cross-reactivity; also recorded: good cross reactivity | 0.00 |
| VATLSEALRIIAGTLEVHAV-OH [compound 67] | showed cross-reactivity | 4.00 |
| STGGAYESYKFIPALEAAVK-OH [compound 71] | showed cross-reactivity; also recorded: very good cross-reactivity | 0.00 |
| DKYRTFVATFGAASNKAFAE-OH [peptide 231] | showed cross-reactivity |  |
